Here are results for three compounds from patent EP1086692A2, “Estrogen agonists and antagonists for multiple indications” (priority 1999, dated 2001).

In data set [1] the test system is human plasma proteins. Nature of the data set: Binding of propranolol to human plasma proteins in the absence and presence of droloxifene or lasofoxifene (equilibrium dialysis, HPLC-MS). Particulars: result in words; droloxifene 200 ng/ml, lasofoxifene 50 ng/ml. How it is done:
(§1) The effect of droloxifene or lasofoxifene on plasma protein binding was assessed at […] concentrations of 2 and 10 µg/ml and propranolol concentrations of 50 and 500 ng/ml. The concentrations of droloxifene and lasofoxifene used were 200 and 50 ng/ml respectively.

Data set [2] can be described thus: Binding of droloxifene and lasofoxifene to human plasma proteins. Particulars: human, plasma.
The subject of data set [3] is human plasma proteins. Described as above. Particulars: binding of the SERM itself, human plasma.
Data set [4] in a line: Binding of propranolol to human plasma proteins in the absence and presence of droloxifene or lasofoxifene (equilibrium dialysis, HPLC-MS). Particulars: human, plasma. The procedure: as §1
On the technique in general: Equilibrium dialysis compares concentrations on both sides of a semipermeable membrane.

SMILES strings stand for the structures. Where “and” joins values, the source holds several entries; their conditions need not be identical. Equal values may be shown once.

Take `CC/C(=C(/c1ccc(OCCN(C)C)cc1)c1cccc(O)c1)c1ccccc1` [droloxifene]: the “effect on the protein binding of propranolol in human plasma” value in the data set with human plasma proteins [1] is on record as “will not be altered”. Further, the fraction unbound in data set [2] was 3e-05. For the same compound, in the data set with human plasma proteins [3], the “bound to human plasma proteins” value is recorded as 99.997%.
Regarding `Oc1ccc2c(c1)CC[C@H](c1ccccc1)[C@@H]2c1ccc(OCCN2CCCC2)cc1` [lasofoxifene, (-) cis-6-phenyl-5[4-(2-pyrrolitin-1-yl-ehtoxy)-phenyl]-5,6,7,8-tetrahydronaphthalene-2-ol], the “effect on the protein binding of propranolol in human plasma” value in the data set on human plasma proteins [1] is on record as “will not be altered”. Further, in the data set on human plasma proteins [3], the “bound to human plasma proteins” value was 99.997% and 99.94%.
`CC(C)NCC(O)COc1cccc2ccccc12` (stereo not drawn) [propranolol, reference compound]: the fraction unbound in data set [4] was 0.24.
